How the values were obtained:
Assay in all cases: combination Emax (second highest fraction inhibited in the dose matrix, 72 h); higher = more inhibition; extreme values may be limits of the assay
[1] = system: HO-1-N-1 (Oral Cavity Carcinoma)
Summary of the method: (§1)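 Bliss excess equals the observed combination effect minus the expected value EA + EB − EA·EB, where EA and EB are the effects of each agent alone. Combination Emax is the second-highest inhibition within the matrix. Inhibition was scaled from CellTiter-Glo 2.0 luminescence, with 0 set by vehicle wells and 1 by blank wells, after 72 hours of two-drug dosing of cells plated in 1536-well plates.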

[2] = system: TE-15 (Esophageal Squamous Cell Carcinoma)
Summary of the method: as §1

NB10 (Neuroblastoma) = system: NB10 (Neuroblastoma)
Summary of the method: as §1

AGS (Gastric Carcinoma) = system: AGS (Gastric Carcinoma)
Summary of the method: as §1

[3] = system: MFE-296 (Endometrial Carcinoma)
Summary of the method: as §1

42-MG-BA (Glioblastoma) = system: 42-MG-BA (Glioblastoma)
Summary of the method: as §1

[4] = system: OVCA420 (Ovarian Carcinoma)
Summary of the method: as §1

T98G (Glioblastoma) = system: T98G (Glioblastoma)
Summary of the method: as §1

[5] = system: TE-9 (Esophageal Squamous Cell Carcinoma)
Summary of the method: as §1

[6] = system: KYSE-520 (Esophageal Squamous Cell Carcinoma)
Summary of the method: as §1

[7] = system: DEL (T-Cell Non-Hodgkin's Lymphoma)
Summary of the method: as §1

[8] = system: KURAMOCHI (Ovarian Carcinoma)
Summary of the method: as §1

[9] = system: MDA-MB-361 (Breast Carcinoma)
Summary of the method: as §1

HOS (Osteosarcoma) = system: HOS (Osteosarcoma)
Summary of the method: as §1

[10] = system: SNU-5 (Gastric Carcinoma)
Summary of the method: as §1

[11] = system: RO82-W-1 (Thyroid Gland Carcinoma)
Summary of the method: as §1

[12] = system: Ramos-2G6-4C10 (Burkitt's Lymphoma)
Summary of the method: as §1

[13] = system: LU-135 (Small Cell Lung Carcinoma)
Summary of the method: as §1

NOS-1 (Osteosarcoma) = system: NOS-1 (Osteosarcoma)
Summary of the method: as §1

[14] = system: TCCSUP (Bladder Carcinoma)
Summary of the method: as §1

SMILES	combination Emax [1]	combination Emax [2]	combination Emax (NB10 (Neuroblastoma))	combination Emax (AGS (Gastric Carcinoma))	combination Emax [3]	combination Emax (42-MG-BA (Glioblastoma))	combination Emax [4]	combination Emax (T98G (Glioblastoma))	combination Emax [5]	combination Emax [6]	combination Emax [7]	combination Emax [8]	combination Emax [9]	combination Emax (HOS (Osteosarcoma))	combination Emax [10]	combination Emax [11]	combination Emax [12]	combination Emax [13]	combination Emax (NOS-1 (Osteosarcoma))	combination Emax [14]
COc1cccc(OCCCN)c1-c1cc(Nc2cnc(C#N)cn2)n[nH]1 [Prexasertib] + CCc1c2c(nc3ccc(O)cc13)-c1cc3c(c(=O)n1C2)COC(=O)[C@]3(O)CC [SN-38] (first compound max 1 µM, 7x7, partner max 0.3 µM)	1	0.921	0.865	0.93	0.83	1	0.75	0.904	0.8	0.856	1	0.897	0.913	0.994	1	0.511	1	0.833	0.524	0.934
COc1cccc(OCCCN)c1-c1cc(Nc2cnc(C#N)cn2)n[nH]1 [Prexasertib] + CN(C)CCCOc1ccc(-c2ccc3ncc4c(c3c2)n(C2CCOCC2)c(=O)n4C)cn1 [AZD0156] (first compound max 1 µM, 7x7, partner max 1 µM)	0.913	0.831	0.928	0.537	0.583	0.937	0.676	0.899	0.596	0.725	1	0.706	0.954	0.854	0.926	0.572	1	0.554	0.332	0.689
COc1cccc(OCCCN)c1-c1cc(Nc2cnc(C#N)cn2)n[nH]1 [Prexasertib] + C[C@@H]1COCCN1C2=NC(=NC(=C2)C3(CC3)[S@](=N)(=O)C)C4=C5C=CNC5=NC=C4 [AZD6738] (first compound max 1 µM, 7x7, partner max 10 µM)	0.898	0.874	0.863	0.663	0.554	0.904	0.692	0.905	0.481	0.728	1	0.647	0.922	0.902	0.975	0.441	1	0.634	0.381	0.712
COc1cccc(OCCCN)c1-c1cc(Nc2cnc(C#N)cn2)n[nH]1 [Prexasertib] + Cc1cc2ncnn2cc1Nc1ncc2c(n1)n(C1CCOCC1)c(=O)n2C [AZD7648] (first compound max 1 µM, 7x7, partner max 10 µM)	0.927	0.831	0.918	0.48	0.569	0.908	0.699	0.893	0.516	0.728	1	0.672	0.929	0.826	0.983	0.45	1	0.584	0.321	0.704
COc1cccc(OCCCN)c1-c1cc(Nc2cnc(C#N)cn2)n[nH]1 [Prexasertib] + O=C(c1cc(Cc2n[nH]c(=O)c3ccccc23)ccc1F)N1CCN(C(=O)C2CC2)CC1 [Olaparib] (first compound max 1 µM, 7x7, partner max 10 µM)	0.938	0.842	0.797	0.426	0.525	0.908	0.733	0.757	0.567	0.548	1	0.68	0.919	0.854	0.968	0.45	1	0.493	0.373	0.731
COc1cc2c(cc1OCCCCCOc1cc3c(cc1OC)C(=O)N1C=C(C)C[C@H]1C=N3)N=C[C@@H]1CC(C)=CN1C2=O [SG3199] + O=C(c1cc(Cc2n[nH]c(=O)c3ccccc23)ccc1F)N1CCN(C(=O)C2CC2)CC1 [Olaparib] (first compound max 0.001 µM, 7x7, partner max 10 µM)	0.103	0.166	0.348	0.248	0.0449	0.247	0.0795	0.114	0.0964	0.133	0.597	0.129	0.0847	0.105	0.129	0.17	0	0.354	0.155	0.162
CCc1c2c(nc3ccc(O)cc13)-c1cc3c(c(=O)n1C2)COC(=O)[C@]3(O)CC [SN-38] + CN(C)CCCOc1ccc(-c2ccc3ncc4c(c3c2)n(C2CCOCC2)c(=O)n4C)cn1 [AZD0156] (first compound max 0.3 µM, 7x7, partner max 1 µM)	1	0.819	0.829	0.814	0.496	1	0.171	0.546	0.395	0.284	1	0.659	0.397	0.893	0.945	0.46	0.98	0.728	0.0879	0.743
C[C@@H](c1ccc2nccn2c1)n1nnc2ncc(-c3cnn(C)c3)nc21 [Savolitinib] + CC1(C)CCC(CN2CCN(c3ccc(C(=O)NS(=O)(=O)c4ccc(NCC5CCOCC5)c([N+](=O)[O-])c4)c(Oc4cnc5[nH]ccc5c4)c3)CC2)=C(c2ccc(Cl)cc2)C1 [Venetoclax] (first compound max 1 µM, 7x7, partner max 1 µM)	0.158	0.287	0.149	0.0926	0.0764	0.166	0.0542	0.159	0.152	0.149	0.0701	0.15	0.119	0.205	0.847	0.169	0.169	0.114	0.0631	0.143
C[C@@H](c1ccc2nccn2c1)n1nnc2ncc(-c3cnn(C)c3)nc21 [Savolitinib] + Cc1c2c(nn1C)CSCc1cc(n(C)n1)CSc1cc(c3ccccc3c1)OCCCc1c(C(=O)O)n(C)c3c-2c(Cl)ccc13 [AZD5991] (first compound max 1 µM, 7x7, partner max 1 µM)	0.488	0.282	0.202	0.241	0.244	0.192	0.213	0.12	0.239	0.189	1	0.286	0.735	0.278	0.937	0.169	0.975	0.194	0.742	0.252
Cn1cnc2c(F)c(Nc3ccc(Br)cc3Cl)c(C(=O)NOCCO)cc21 [Selumetinib] + C=CCn1c(=O)c2cnc(Nc3ccc(N4CCN(C)CC4)cc3)nc2n1-c1cccc(C(C)(C)O)n1 [AZD1775] (first compound max 10 µM, partner max 1 µM)	0.718	0.74	0.712	0.932	0.163	0.282	0.508	0.699	0.231	0.595	1	0.65	0.819	0.222	0.638	0.183	0.997	0.583	0.818	0.429
Cn1cnc2c(F)c(Nc3ccc(Br)cc3Cl)c(C(=O)NOCCO)cc21 [Selumetinib] + CC(C)n1c(=O)n(C)c2cnc3cc(F)c(-c4ccc(OCCCN5CCCCC5)nc4)cc3c21 [AZD1390] (first compound max 10 µM, 7x7, partner max 0.3 µM)	0.506	0.409	0.32	0.842	0.0966	0.185	0.436	0.191	0.13	0.382	0.237	0.194	0.12	0.11	0.54	0.125	0.137	0.136	0.257	0.109
Cn1cnc2c(F)c(Nc3ccc(Br)cc3Cl)c(C(=O)NOCCO)cc21 [Selumetinib] + CCN(CCO)CCCOc1ccc2c(Nc3cc(CC(=O)Nc4cccc(F)c4)[nH]n3)ncnc2c1 [AZD2811] (first compound max 10 µM, 7x7, partner max 1 µM)	0.737	0.492	0.397	0.954	0.125	0.447	0.493	0.226	0.175	0.428	0.965	0.251	0.193	0.198	0.569	0.203	0.117	0.933	0.313	0.217
Cn1cnc2c(F)c(Nc3ccc(Br)cc3Cl)c(C(=O)NOCCO)cc21 [Selumetinib] + C[C@@H]1COCCN1C2=NC(=NC(=C2)C3(CC3)[S@](=N)(=O)C)C4=C5C=CNC5=NC=C4 [AZD6738] (first compound max 10 µM, 7x7, partner max 10 µM)	0.763	0.834	0.916	0.986	0.339	0.53	0.562	0.731	0.147	0.534	1	0.554	0.795	0.529	0.961	0.266	0.847	0.753	0.784	0.546
